The text below walks through data of US8247377B2, “Non-steroidal glucocorticoid inhibitors and their use in treating inflammation, allergy and auto-immune conditions” (Glaxo Group Limited, priority 2006, dated 2012).

Series [1] can be described thus: Assay for brain penetrance. It is filed as in vivo. The conditions noted are these: brain and plasma, rat, single intravenous dose 1 mg/kg, read-out: brain to plasma ratio. As to the method:
Each rat received a single intravenous dose at a level of 1 mg/kg. The dose was formulated in 10% DMSO/50% PEG200/40% sterile water. Terminal blood samples were taken at 5 or 15 minutes after dosing, by cardiac puncture following anaesthesia with isofluorane. The brains were removed at the same time point.
The compounds were extracted from 20 μL plasma by protein precipitation using 120 μL acetonitrile containing an analogue compound as an internal standard. The filtered extracts were collected into a 96 well plate and were diluted with an equal volume of 10% acetonitrile containing 0.1% formic acid in water (v/v). The plate was then mixed on a plate shaker for at least 5 minutes before analysis by LC-MS/MS against a calibration line prepared in control plasma.
Each brain was weighed, then homogenised in 3 ml acetonitrile:water (10:90 v/v). The compounds were extracted from 200 μL of the resulting homogenate by protein precipitation using 600 μL acetonitrile containing an analogue compound as an internal standard. The extracts were centrifuged and 150 μl of each was filtered and transferred to a 96 well plate. The aliquot was diluted with 10% acetonitrile containing 0.1% formic acid in water (v/v). The plate was mixed on a plate shaker for at least 5 minutes before analysis by LC-MS/MS against a calibration line prepared in control brain homogenate.

The next series deals with T1, glucocorticoid receptor (Homo sapiens, UniProt P04150).
T1 construct: a partially purified full length glucocorticoid receptor
T1 sequence (P04150 1-777): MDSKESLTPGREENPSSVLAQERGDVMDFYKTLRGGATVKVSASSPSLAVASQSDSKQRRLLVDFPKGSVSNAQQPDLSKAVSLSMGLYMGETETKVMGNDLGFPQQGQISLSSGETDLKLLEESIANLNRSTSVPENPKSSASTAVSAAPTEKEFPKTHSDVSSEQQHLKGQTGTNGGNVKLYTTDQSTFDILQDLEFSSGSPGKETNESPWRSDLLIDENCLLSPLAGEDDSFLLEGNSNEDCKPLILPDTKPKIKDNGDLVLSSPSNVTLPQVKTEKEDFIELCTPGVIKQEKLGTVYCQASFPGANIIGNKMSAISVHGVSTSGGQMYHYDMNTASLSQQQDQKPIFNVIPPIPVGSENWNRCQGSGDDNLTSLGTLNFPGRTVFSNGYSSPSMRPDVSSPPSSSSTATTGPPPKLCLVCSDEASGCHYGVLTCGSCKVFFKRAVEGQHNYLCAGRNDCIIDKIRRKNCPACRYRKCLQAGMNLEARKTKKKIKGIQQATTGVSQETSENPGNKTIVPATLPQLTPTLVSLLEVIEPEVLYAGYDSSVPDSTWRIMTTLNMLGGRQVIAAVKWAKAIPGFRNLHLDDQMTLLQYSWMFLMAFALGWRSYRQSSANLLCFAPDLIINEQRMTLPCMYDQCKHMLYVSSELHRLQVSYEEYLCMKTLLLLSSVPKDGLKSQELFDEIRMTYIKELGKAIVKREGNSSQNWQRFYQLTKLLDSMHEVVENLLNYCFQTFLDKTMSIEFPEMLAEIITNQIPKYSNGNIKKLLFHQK
Description: Glucocorticoid receptor binding assay (fluorescence polarisation). The conditions noted are these: competition with Alexa 555 fluorescently-labelled dexamethasone derivative, full length glucocorticoid receptor; read-out: glucocorticoid binding pIC50 (converted). The protocol: Compounds were solvated and diluted in DMSO, and transferred directly into assay plates. Fluorescent dexamethasone and a partially purified full length glucocorticoid receptor were added to the plates, together with buffer components to stabilise the GR protein and incubated at room temperature for 2 hrs in the dark. Binding of each compound was assessed by analysing the displacement of fluorescent ligand by measuring the decrease in fluorescence polarisation signal from the mixture. Dose response curves were constructed from which pIC50 values were estimated.

Another series deals with T2, progesterone receptor (Homo sapiens, UniProt P06401).
T2 construct: expressed in transfected cells; host or cells: CV-1 cells transduced with PRb-BacMam and MMTV-BacMam
T2 sequence (P06401 1-933): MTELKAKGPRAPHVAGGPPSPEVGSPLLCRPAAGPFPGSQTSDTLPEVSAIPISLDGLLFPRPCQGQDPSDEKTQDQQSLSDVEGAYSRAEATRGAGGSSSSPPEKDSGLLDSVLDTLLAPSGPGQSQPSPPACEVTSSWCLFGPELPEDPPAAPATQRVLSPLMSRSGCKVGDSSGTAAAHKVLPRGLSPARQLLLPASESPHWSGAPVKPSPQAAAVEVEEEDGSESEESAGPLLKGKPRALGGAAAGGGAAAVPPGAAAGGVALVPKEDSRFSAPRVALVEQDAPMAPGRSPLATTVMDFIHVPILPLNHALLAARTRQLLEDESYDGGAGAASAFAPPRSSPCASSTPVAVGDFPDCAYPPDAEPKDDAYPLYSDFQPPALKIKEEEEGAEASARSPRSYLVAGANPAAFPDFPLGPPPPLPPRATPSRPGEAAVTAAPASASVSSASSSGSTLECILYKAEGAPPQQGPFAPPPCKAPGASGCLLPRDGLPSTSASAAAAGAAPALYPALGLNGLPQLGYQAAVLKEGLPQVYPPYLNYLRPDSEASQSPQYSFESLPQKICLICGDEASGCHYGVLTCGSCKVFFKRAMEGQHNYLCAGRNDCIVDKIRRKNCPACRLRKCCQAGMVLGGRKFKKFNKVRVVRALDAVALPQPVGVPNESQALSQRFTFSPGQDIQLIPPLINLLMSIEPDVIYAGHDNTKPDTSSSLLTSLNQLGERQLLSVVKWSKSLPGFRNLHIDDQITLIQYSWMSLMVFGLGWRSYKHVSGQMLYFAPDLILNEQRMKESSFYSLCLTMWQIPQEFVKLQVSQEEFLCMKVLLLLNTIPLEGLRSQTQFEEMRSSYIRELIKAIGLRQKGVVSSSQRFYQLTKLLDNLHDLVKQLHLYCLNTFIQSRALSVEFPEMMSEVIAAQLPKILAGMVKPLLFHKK
Description: Assay for progesterone receptor activity (CV-1 cells, PRb-BacMam/MMTV-BacMam). It is filed as cell-based. The following applies: CV-1 cells transduced with PRb-BacMam and MMTV-BacMam; read-out: pEC50 progesterone receptor activity (converted). As to the method:
A T225 flask of CV-1 cells at a density of 80% confluency was washed with PBS, detached from the flask using 0.25% trypsin and counted using a Sysmex KX-21N. Cells were diluted in DMEM containing 10% Hyclone, 2 mM L-Glutamate and 1% Pen/Strep at 140 cells/μl and transduced with 10% PRb-BacMam and 10% MMTV-BacMam. […] of suspension cells were dispensed to each well of white Nunc 384-well plates, containing compounds at the required concentration. After 24 h 10 μl of Steadylite were added to each well of the plates. Plates were incubated in the dark for 10 min before reading them on a Viewlux reader. Dose response curves were constructed from which pEC50 values were estimated.

Another series concerns NFκB. Description: NFκB agonist assay in A549 SPAP cells. The conditions noted are these: Homo sapiens; A549 SPAP cells, TNFα 3.2 ng/ml; read-out: pIC50 for the NFkB assay (converted). It counts as cell-based. From the text:
Human lung carcinoma A549 cell line (ECACC No. 86012804) has been stably transfected in house with a plasmid containing an ELAM promoter sequence that has a NFκB response element within it. Stimulation of the cell line with TNFα results in intracellular signal transduction and ultimately translocation of NFκB into the nucleus. This activates the inserted DNA sequence resulting in transcription of the integrated SPAP gene, which is quantified using a colorimetric assay. […] The stably transfected cell line was grown as a monolayer in DMEM supplemented with FCS-HI (10%), Non-essential amino acids (1%), L-Glutamine (2 mM), Pen/Strep (1%) and Geneticin (50 mg/ml).
A 70% confluent T225 flask of A549 SPAP cells was harvested by centrifugation for 5 min at 200 g, resuspended in assay buffer (DMEM supplemented with 10% FCS 2×HI, 2 mM L-Glutamine, 1% Pen/Strep and Non essential amino acids) and diluted to 0.16×10^6/ml. 60 μl of cell solution was dispensed to each well of clear Nunc 384-well plates, containing compound at the required concentration. Plates were incubated for 1 h at 37° C., 95% humidity, 5% CO2 before 10 μl of TNFα was added at final concentration of 3.2 ng/ml and then returned to the cell incubator for 15 h. Plates were equilibrated to room temperature for 1 h prior to the addition of 25 μl of pNPP buffer (1M Diethanolamine pH 9.8, 0.5 mM MgCl2, 0.28M NaCl, 2 mg/ml pNPP) to each well of assay plates. The plates were covered to protect the reagents from light, and then incubated at room temperature for approximately 1 hour before reading them on an Ascent using a 405 nm single filter. Dose response curves were constructed from which pIC50 values were estimated.

`CN(CC(O)(CNC(=O)c1cnn(-c2ccc(F)cc2)c1N)C(F)(F)F)C(=O)c1c(Cl)cccc1Cl` (single isomer, unassigned) [Example 1 Enantiomer 1, 5-Amino-N-(2-{[[(2,6-dichlorophenyl)carbonyl](methyl)amino]methyl}-3,3,3-trifluoro-2-hydroxypropyl)-1-(4-fluorophenyl)-1H-pyrazole-4-carboxamide]: the Kp at 5 min in series [1] is at least 0.1. Moreover, the IC50 is at most 316 nM at glucocorticoid receptor and below 1000 nM in the series on NFκB. The EC50 at progesterone receptor is above 1000 nM.
Turning to `CCN(CC(O)(CNC(=O)c1cnn(-c2ccc(F)cc2)c1N)C(F)(F)F)C(=O)c1c(F)cccc1F` (single isomer, unassigned) [Example 5 Enantiomer 1, 5-Amino-N-(2-{[[(2,6-difluorophenyl)carbonyl](ethyl)amino]methyl}-3,3,3-trifluoro-2-hydroxypropyl)-1-(4-fluorophenyl)-1H-pyrazole-4-carboxamide], the Kp at 5 min in series [1] was at least 0.1. In addition, the IC50 is at most 316 nM at glucocorticoid receptor and below 1000 nM in the series with NFκB. Also, the EC50 on progesterone receptor is above 1000 nM.
